Measurements: patent publication US9573970B2, “4-{4-[(1E)-4-(2,9-diazaspiro[5.5]undec-2-yl)but-1-en-1-yl]-2-methylbenzyl}-5-(propan-2-yl)-1H-pyrazol-3-yl beta-D glucopyranoside acetate” (Eli Lilly and Company, priority 2013, dated 2017)

Assays:
mouse SGLT1 = biological target: T1, mouse SGLT1 (Mus musculus, UniProt Q8C3K6); assay: Sodium-dependent 14C-AMG uptake in CHO-K1 cells expressing mouse SGLT1; assay type: cell-based; details: n = 9
T1 sequence (Q8C3K6 1-665): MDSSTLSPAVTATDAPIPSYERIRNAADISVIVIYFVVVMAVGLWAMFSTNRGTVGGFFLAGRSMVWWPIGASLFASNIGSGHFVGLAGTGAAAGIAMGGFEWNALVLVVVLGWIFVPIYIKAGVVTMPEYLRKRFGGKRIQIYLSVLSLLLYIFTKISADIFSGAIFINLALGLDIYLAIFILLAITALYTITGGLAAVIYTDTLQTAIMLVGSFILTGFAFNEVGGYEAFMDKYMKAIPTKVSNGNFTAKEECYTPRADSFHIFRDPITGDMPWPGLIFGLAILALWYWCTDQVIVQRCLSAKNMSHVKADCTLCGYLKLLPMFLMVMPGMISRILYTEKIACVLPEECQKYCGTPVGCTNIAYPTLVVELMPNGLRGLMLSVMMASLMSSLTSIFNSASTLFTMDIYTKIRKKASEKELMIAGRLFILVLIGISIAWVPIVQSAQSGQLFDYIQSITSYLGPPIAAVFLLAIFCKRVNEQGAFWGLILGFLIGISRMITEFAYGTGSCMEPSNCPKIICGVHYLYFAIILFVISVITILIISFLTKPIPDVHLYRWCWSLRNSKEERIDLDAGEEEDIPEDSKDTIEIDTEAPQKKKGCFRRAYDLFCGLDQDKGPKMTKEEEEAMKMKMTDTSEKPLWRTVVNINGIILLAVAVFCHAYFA
Excerpt: The cDNA encoding human SGLT1 (slc5a1, NM_000343), human SGLT2 (slc5a2, NM_003041) and mouse SGLT1 (slc5a1, NM_019810.4) are purchased from Openbiosystems, Invitrogen and Openbiosystems, respectively. The cDNA is cloned into pcDNA3.1+ for mammalian expression and is stably transfected into Chinese hamster ovary (CHO)-K1 cells using standard mammalian transfection procedures. An SGLT-expressing sub-clone of each over-expressing cell line is selected based on resistance to neomycin (Geneticin, Invitrogen) and activity in the ^14C-α-methyl-D-glucopyranoside (^14C-AMG) uptake assay (see below). Stable SGLT-expressing cells are maintained using standard cell culture techniques.
The SGLT activity is measured as sodium-dependent ^14C-AMG uptake in the above cell lines described as follows. One hundred μL of culture medium containing 30,000 cells are seeded to each well of a 96-well BioCoat poly-D-lysine plate (Becton Dickson) and cultured at 37° C. overnight. The culture medium is aspirated and cells are washed twice with 200 μL of Reaction Buffer (140 mM NaCl, 2 mM KCl, 1 mM CaCl2, MgCl2, and 14 mM N-2-hydroethylpiperrazine-N′-2-ethanesulfonic acid (Hepes), pH 7.5). The excess buffer is tapped out onto paper towels. Thirty-five μL of Reaction Buffer are added to each well. […] After mixing, the scintillation signal in the plate is counted in a MicroBeta (PerkinElmer). […]

[1] = system: male rats with STZ-induced diabetes; assay: Mixed meal tolerance test (MTT) in male rats with streptozotocin induced diabetes; assay type: in vivo, rat; details: for Glucose value, 0 min.: 30 min after compound, before meal; for Glucose value, 0 min. / Baseline Adjusted AUC (glucose) / Glucose value, 20 min. / Glucose value, 40 min. / Glucose value, 60 min. / Glucose value, 120 min.: mean ± SE; for Baseline Adjusted AUC (glucose): MTT
Method: The test compound is formulated by adding a vehicle of 1% hydroxyethylcellulose (HEC), 0.25% Tween® 80 w/antifoam 0.05% to preweighed test compound to make a 2.5 mg/ml solution. The mixture is probe sonicated for approximately 30 seconds. The resulting solution is used as a stock solution, from which the lower concentration dose solutions are prepared by dilution with the vehicle. STZ, 45 mg/kg, is formulated by dissolving in 0.1M Citrate buffer in 3 ml aliquots and stored in the dark on ice, when not being administered. A high fat content mixed meal (Bio-Serv® Rodent Diet F3282 High Fat) comprising Fat Calories (60%), Carbohydrate Calories (26%) and Protein Calories (15%) is utilized. Single housed Sprague Dawley rats are allowed to acclimate for a period of 3 to 7 days.
In an effort to ensure that the animals have not recently fed, STZ is administered in the afternoon, approximately six hours into the light cycle (lights on 6 am, lights off 6 pm). The animals are anesthetized with isoflurane and STZ is delivered via tail vein injection. Once animals regain consciousness, they are returned to housing and allowed to recover for 7 days.
On the two days immediately prior to the meal tolerance test (MTT) all rats are given a small amount (2-4 g) of the F3282 diet, so they became acclimated to it prior to receiving it during the experiment. On the evening before the experiment, the rats are moved into clean cages and their food is removed. The following morning animals are weighed and a blood sample is taken by tail snip for glucose measurement (Abbott AlphaTRAK™ glucometers: code 29) Animals are grouped n=6 based on fasted body weight and glucose. Thirty minutes after the test compound is orally administered, two glucose measurements are collected. Then a five gram pellet of Bio-Serv® diet 3282 is given. After 20 minutes remaining food is taken away and weighed. Blood samples are taken at 20, 40, 60 and 120 minutes for glucose measurement.

[2] = in words, Example 1 free base 10 and 30 mg/kg, Acarbose 60 mg/kg

## Cc1cc(/C=C/CCN2CCCC3(CCNCC3)C2)ccc1Cc1c(O[C@@H]2O[C@H](CO)[C@@H](O)[C@H](O)[C@H]2O)n[nH]c1C(C)C [Example 1 (free base), 4-{4-[(1E)-4-(2,9-diazaspiro[5.5]undec-2-yl)but-1-en-1-yl]-2-methylbenzyl}-5-(propan-2-yl)-1H-pyrazol-3-yl beta-D-glucopyranoside]
Mouse SGLT1
  IC50: 0.01 ± 0.002 µM
[1]; 10 mg/kg oral
  Glucose value, 0 min.: 139 ± 16.1 mg/dL
  Baseline Adjusted AUC (glucose): 22432 ± 2234
  Glucose value, 20 min.: 221.2 ± 26.3 mg/dL
  Glucose value, 40 min.: 268.7 ± 29 mg/dL
  Glucose value, 60 min.: 330 ± 36.7 mg/dL
  Glucose value, 120 min.: 490.8 ± 39.2 mg/dL
[1]; 30 mg/kg oral
  Glucose value, 0 min.: 137.4 ± 26.9 mg/dL
  Baseline Adjusted AUC (glucose): 14649 ± 3673
  Glucose value, 20 min.: 195.4 ± 44.8 mg/dL
  Glucose value, 40 min.: 232 ± 52.2 mg/dL
  Glucose value, 60 min.: 263.9 ± 62.2 mg/dL
  Glucose value, 120 min.: 355.3 ± 73.2 mg/dL
[1]; [2]
  Glucose baseline adjusted AUCs in the MTT: dose dependent decrease in glucose baseline adjusted AUCs
  Glucose in the MTT compared to the vehicle controls: significantly and dose dependently decreases glucose
